The source of these data is patent US7795226B2, “Control of radiation injury” (Biotempt B.V., priority 2006, dated 2010).

The test system of assay [1] is LPS (E. coli 026:B6)-induced sepsis in BALB/c mice. Kind of assay: endotoxin shock survival after early or late treatment with peptide. The class given is in vivo. The protocol:
Mice used in sepsis or septic shock experiments: Female BALB/c mice of eight to twelve weeks of age were used for all experiments. The animals were bred in our facility under specific pathogen-free conditions according to the protocols described in the […] of European Laboratory Animal Science Associations (FELASA) Working group on Animal Health (Laboratory Animals 28:1-24, 1994).
Injection protocols: For the endotoxin model, BALB/c mice were injected i.p. with 150-300 μg LPS (E. coli 026:B6; Difco Lab., Detroit, Mich., USA). Control groups were treated with PBS i.p. only. To test the effect of peptides, they were dissolved in PBS and injected i.p. at predetermined points in time after LPS treatment.
A further set of septic shock experiments were set up to determine which of the peptides LQG, LQGV (SEQ ID NO:117), VLPALP (SEQ ID NO:140), VLPALPQ (SEQ ID NO:143), MTR, MTRV (SEQ ID NO:119), VVC or AQGV (SEQ ID NO:120) under study were most suited to be used early and/or late after or throughout the development of shock. For determining the percent of endotoxin shock survival after late or early treatment with peptide, BALB/c mice were injected i.p. with 300 μg LPS (E. coli 026:B6; Difco Lab., Detroit, Mich. USA), predetermined to be leading to 100% mortality in 48 hours without peptide treatment.
To evaluate the effect of peptide treatment at an early or late point in time of development of shock, mice were treated at two hours or at 24 hours after LPS injection by i.p. injection with test peptide at 5 mg/kg bodyweight. The mice were followed for 84 hours instead of for 48 hours in the earlier experiments.

Assay [2] relates to cell-cycle marker pCDG and auxin-responsive marker DR5::GUS. The experiment in a line: Arabidopsis thaliana seedling cell-cycle analysis (GUS markers). The following applies: for identified as useful peptide for treatment of radiation injury from cell-cycle studies in plants and in vitro proliferation studies: Results from Examples 9 and 10. The essentials:
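Four-day-old Ws-0 seedlings carrying GUS reporters (pCDG, DR5::GUS) were exposed to peptides at 5 mg/ml in PBS pH 8 for four and eight hours. GUS staining with 2 mM X-Gluc for 16 hours; distribution in root, root-hypocotyl transition zone and cotyledons assessed by DIC microscopy after chloral hydrate clearing.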

Assay [3] deals with spleen cell suspensions stimulated with anti-CD3 antibody. Kind of assay: anti-CD3 induced proliferation of spleen cells from peptide-treated mice. The following applies: mice treated i.p. 0.5 or 5 mg/kg for one hour; 0, 12, 24 and 48 hours culture. The class given is cell-based. The protocol:
FIG. 4: A test on representative oligopeptides for their effect on proliferation during rapid growth of murine monocytes induced by CD3 when avid cell division occurs. Mice (n=5) were treated i.p. PBS, Nak4 (LQGV (SEQ ID NO:117)), Nak47 (LAGV (SEQ ID NO:121)), Nak46 (AQGV (SEQ ID NO:120)) provided by Ansynth BV, The Netherlands, or Nak46* (AQGV (SEQ ID NO:120) provided by Diosynth BV, The Netherlands). Mice were treated with 0.5 mg/kg of 5 mg/kg peptide for one hour, after which, spleens were isolated and spleen cell suspensions were made. Spleen cell suspensions were pooled per group and cultured in vitro (in three-fold) in the presence of PBS or of anti-CD3 antibody and proliferation was tested at 0, 12, 24 and 48 hours after culture.
To further study anti-cell-cycle activity of various oligopeptides, an in vitro experiment in […] of mice stimulated with anti-CD3 was performed. The aim was to test representative oligopeptides for their effect on proliferation during rapid growth induced by CD3 when avid cell division occurs. Mice (n=5) were treated i.p. PBS, Nak4 (LQGV (SEO ID NO:117)), Nak47 (LAGV (SEQ ID NO:121)), Nak46 (AQGV (SEQ ID NO:120)) provided by Ansynth BV, The Netherlands, or Nak46* (AQGV (SEQ ID NO:120) provided by Diosynth BV, The Netherlands). Mice were treated with 0.5 mg/kg or 5 mg/kg peptide for one hour after which spleens were isolated and spleen cell suspensions were made. Spleen cell suspensions were pooled per group and cultured in vitro (in three-fold) in the presence of PBS or of anti-CD3 antibody and proliferation was tested at 0, 12, 24 and 48 hours after culture.

The mark [4] stands for this setting: 0 hours, peptide 5 mg/kg 2 hours after LPS.
[5] abbreviates: 0 hours, peptide 5 mg/kg 24 hours after LPS.
[6] abbreviates: 5 mg/kg given both early (2 hours) or late (24 hours).
[7] abbreviates: 14 hours, peptide 5 mg/kg 2 hours after LPS.
The mark [8] stands for this setting: 14 hours, peptide 5 mg/kg 24 hours after LPS.
Where [9] appears, read: 24 hours, peptide 5 mg/kg 2 hours after LPS.
Where [10] appears, read: 24 hours, peptide 5 mg/kg 24 hours after LPS.
The mark [11] stands for this setting: 48 hours, peptide 5 mg/kg 2 hours after LPS.
[12] abbreviates: 48 hours, peptide 5 mg/kg 24 hours after LPS.
Setting [13] is: 84 hours, peptide 5 mg/kg 2 hours after LPS.
Setting [14] is: 84 hours, peptide 5 mg/kg 24 hours after LPS.

In the case of AQGV, the “% Survival” value in assay [1] (setting [4]), in assay [1] (setting [5]), in assay [1] (setting [7]), in assay [1] (setting [8]), in assay [1] (setting [9]) and in assay [1] (setting [10]) was 100% throughout. Moreover, the “% Survival” value in assay [1] (setting [11]), in assay [1] (setting [12]), in assay [1] (setting [13]) and in assay [1] (setting [14]) was 100% in each case. In addition, the “clinical signs of shock at 84 hours after LPS-treatment (in words)” value in assay [1] (setting [6]) is listed as “no remaining clinical signs of shock”. Moreover, the “survival at 84 hours after LPS-treatment” value in assay [1] (setting [6]) turned out to be 100%. For the same substance, the “identified as useful peptide for treatment of radiation injury from cell-cycle studies in plants and in vitro proliferation studies” value (shortened to “identified as useful peptide”) in assay [2] is recorded as “useful”. In addition, the “proliferation of anti-CD3 stimulated spleen cells (in words)” value (“proliferation … (in words)” below) in assay [3] is on record as “reduction of proliferation”.
LAGV (tetramer peptide): the “identified as useful peptide” value in assay [2] is recorded as “useful”. Besides, the “proliferation … (in words)” value in assay [3] was “reduction of proliferation”.
As to LQG, the “% Survival” value in assay [1] (setting [4]), in assay [1] (setting [5]), in assay [1] (setting [7]), in assay [1] (setting [8]), in assay [1] (setting [9]) and in assay [1] (setting [10]) was 100% each time. The “% Survival” value in assay [1] (setting [11]), in assay [1] (setting [12]), in assay [1] (setting [13]) and in assay [1] (setting [14]) was 0% each time.
As to LQGV, the “% Survival” value in assay [1] (setting [4]), in assay [1] (setting [5]), in assay [1] (setting [7]), in assay [1] (setting [8]), in assay [1] (setting [9]) and in assay [1] (setting [10]) was 100% throughout. The “% Survival” value came out at 100% in assay [1] (setting [11]), 0% in assay [1] (setting [12]), 100% in assay [1] (setting [13]) and 0% in assay [1] (setting [14]). Further, the “identified as useful peptide” value in assay [2] is on record as “useful”. For the same substance, the “effect on cell-cycle marker (pCDG) and auxin-responsive marker (DR5::GUS) (in words)” value in assay [2] (seedlings incubated four and eight hours, 5 mg/ml peptide solution) is “clear effect on the tested markers”. The “proliferation … (in words)” value in assay [3] is given as “reduction of proliferation”.
Regarding MTR, the “% Survival” value in assay [1] (setting [4]), in assay [1] (setting [5]), in assay [1] (setting [7]), in assay [1] (setting [8]), in assay [1] (setting [9]) and in assay [1] (setting [10]) was 100% throughout. For the same substance, the “% Survival” value in assay [1] (setting [11]) turned out to be 100%; in assay [1] (setting [12]), 100%; in assay [1] (setting [13]) it was 50%; in assay [1] (setting [14]), 100%.
In the case of MTRV, the “% Survival” value in assay [1] (setting [4]), in assay [1] (setting [5]), in assay [1] (setting [7]), in assay [1] (setting [8]), in assay [1] (setting [9]) and in assay [1] (setting [10]) was 100% each time. In addition, the “% Survival” value came out at 50% in assay [1] (setting [11]), 100% in assay [1] (setting [12]), 30% in assay [1] (setting [13]) and 100% in assay [1] (setting [14]). Also, the “identified as useful peptide” value in assay [2] is reported as “useful”.
For the substance VLPALP (hexamer peptide), the “% Survival” value in assay [1] (setting [4]), in assay [1] (setting [5]), in assay [1] (setting [7]), in assay [1] (setting [8]), in assay [1] (setting [9]) and in assay [1] (setting [10]) was 100% throughout. The “% Survival” value was determined as 100% in assay [1] (setting [11]), 0% in assay [1] (setting [12]), 100% in assay [1] (setting [13]) and 0% in assay [1] (setting [14]). Further, the “identified as useful peptide” value in assay [2] is given as “useful”.
For the substance VLPALPQ (septamer peptide), the “% Survival” value in assay [1] (setting [4]), in assay [1] (setting [5]), in assay [1] (setting [7]), in assay [1] (setting [8]), in assay [1] (setting [9]) and in assay [1] (setting [10]) was 100% throughout. Besides, the “% Survival” value in assay [1] (setting [11]) is on record as 0%; in assay [1] (setting [12]), 100%; in assay [1] (setting [13]), 0%; in assay [1] (setting [14]), 100%.
